# Counter-ions that a name gives are not always drawn.
# Key:
# JAK2 = biological target: T1, JAK2 (Homo sapiens, UniProt O60674); test: JAK2 microfluidic kinase assay (Caliper EZ Reader II, FAM labeled peptide substrate); format: biochemical
# T1 construct: purchased Carna Biosciences
# Procedure: (§1) Compounds were tested against JAK1, JAK2, JAK2V617F and TYK2. Assay Formats: JAK activity was determined in the reaction buffer 50 mM HEPES, 0.01% Brij35, 10 mM MgCl2, 2 mM DTT by a microfluidic assay. The phosphorylation of a FAM labeled peptide substrate was monitored in the Caliper EZ Reader II (Perkin Elmer). The assay condition for each batch of enzyme (Carna Biosciences) was optimized to obtain 10% conversion rate of peptide substrate. The test compounds were dissolved in DMSO to a stock concentration of 10 mM. 3-fold serially diluted compounds with top concentration of 5 μM were pre-incubated with JAK1, JAK2, JAK2V617F or TYK2 at indicated concentrations for 10 min at ambient temperature. The final DMSO concentration of assay mixture was 1%. […] The reaction was stopped by adding 50 mM EDTA. […] The percent inhibition was calculated by the following formula. % Inhibition=(Conversionmax−Conversionsample)/(Conversionmax−Conversionmin)*100 • Conversionmax means the conversion rate in the positive well without addition of compound • Conversionmin means the conversion rate in the well without addition of enzyme • Conversionsample means the conversion rate of test compounds The dose-response (percent inhibition) curve was plotted and IC50 values were determined by GraphPad software.
# JAK1 = biological target: T2, JAK1 (Homo sapiens, UniProt P23458); test: JAK1 microfluidic kinase assay (Caliper EZ Reader II, FAM labeled peptide substrate); format: biochemical; details: IC50 JAK1 (5 nM) (1 m MATP), JAK1 5 nM, 1 mM ATP
# T2 construct: purchased Carna Biosciences
# Procedure: as §1
# [1] = IC50 JAK2 ([…]) (Km ATP), Km ATP
# [2] = IC50 JAK2 ([…]) (1 mM ATP), 1 mM ATP
# T2 sequence (P23458 whole entry): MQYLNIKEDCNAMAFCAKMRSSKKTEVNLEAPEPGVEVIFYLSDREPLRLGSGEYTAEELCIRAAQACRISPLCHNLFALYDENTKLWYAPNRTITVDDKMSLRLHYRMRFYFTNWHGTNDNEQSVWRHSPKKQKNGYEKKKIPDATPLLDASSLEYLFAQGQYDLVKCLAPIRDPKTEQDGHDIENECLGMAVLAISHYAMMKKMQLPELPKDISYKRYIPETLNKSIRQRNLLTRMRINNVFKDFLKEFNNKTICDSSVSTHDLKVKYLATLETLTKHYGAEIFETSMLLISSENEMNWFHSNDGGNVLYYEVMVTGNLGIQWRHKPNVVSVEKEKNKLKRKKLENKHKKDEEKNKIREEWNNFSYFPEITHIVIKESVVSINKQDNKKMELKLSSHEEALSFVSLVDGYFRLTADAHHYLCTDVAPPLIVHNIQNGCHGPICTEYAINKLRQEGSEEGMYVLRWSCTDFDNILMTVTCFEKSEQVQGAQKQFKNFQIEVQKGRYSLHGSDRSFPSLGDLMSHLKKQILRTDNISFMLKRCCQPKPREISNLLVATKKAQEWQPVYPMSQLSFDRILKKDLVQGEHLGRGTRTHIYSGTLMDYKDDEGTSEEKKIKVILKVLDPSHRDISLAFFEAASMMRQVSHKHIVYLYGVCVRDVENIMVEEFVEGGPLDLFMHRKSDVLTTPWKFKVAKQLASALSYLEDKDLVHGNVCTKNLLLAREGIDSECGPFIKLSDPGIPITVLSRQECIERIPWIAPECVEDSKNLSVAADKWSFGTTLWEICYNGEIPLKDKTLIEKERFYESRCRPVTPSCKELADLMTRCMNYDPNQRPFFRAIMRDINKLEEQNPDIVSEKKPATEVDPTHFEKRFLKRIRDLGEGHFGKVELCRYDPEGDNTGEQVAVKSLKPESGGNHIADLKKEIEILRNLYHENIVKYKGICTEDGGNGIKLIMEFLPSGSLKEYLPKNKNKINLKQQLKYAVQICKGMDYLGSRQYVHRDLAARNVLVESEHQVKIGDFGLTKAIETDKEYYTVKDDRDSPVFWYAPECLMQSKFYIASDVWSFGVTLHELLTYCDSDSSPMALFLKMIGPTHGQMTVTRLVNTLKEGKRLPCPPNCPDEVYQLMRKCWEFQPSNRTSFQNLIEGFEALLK
# T1 sequence (O60674 whole entry): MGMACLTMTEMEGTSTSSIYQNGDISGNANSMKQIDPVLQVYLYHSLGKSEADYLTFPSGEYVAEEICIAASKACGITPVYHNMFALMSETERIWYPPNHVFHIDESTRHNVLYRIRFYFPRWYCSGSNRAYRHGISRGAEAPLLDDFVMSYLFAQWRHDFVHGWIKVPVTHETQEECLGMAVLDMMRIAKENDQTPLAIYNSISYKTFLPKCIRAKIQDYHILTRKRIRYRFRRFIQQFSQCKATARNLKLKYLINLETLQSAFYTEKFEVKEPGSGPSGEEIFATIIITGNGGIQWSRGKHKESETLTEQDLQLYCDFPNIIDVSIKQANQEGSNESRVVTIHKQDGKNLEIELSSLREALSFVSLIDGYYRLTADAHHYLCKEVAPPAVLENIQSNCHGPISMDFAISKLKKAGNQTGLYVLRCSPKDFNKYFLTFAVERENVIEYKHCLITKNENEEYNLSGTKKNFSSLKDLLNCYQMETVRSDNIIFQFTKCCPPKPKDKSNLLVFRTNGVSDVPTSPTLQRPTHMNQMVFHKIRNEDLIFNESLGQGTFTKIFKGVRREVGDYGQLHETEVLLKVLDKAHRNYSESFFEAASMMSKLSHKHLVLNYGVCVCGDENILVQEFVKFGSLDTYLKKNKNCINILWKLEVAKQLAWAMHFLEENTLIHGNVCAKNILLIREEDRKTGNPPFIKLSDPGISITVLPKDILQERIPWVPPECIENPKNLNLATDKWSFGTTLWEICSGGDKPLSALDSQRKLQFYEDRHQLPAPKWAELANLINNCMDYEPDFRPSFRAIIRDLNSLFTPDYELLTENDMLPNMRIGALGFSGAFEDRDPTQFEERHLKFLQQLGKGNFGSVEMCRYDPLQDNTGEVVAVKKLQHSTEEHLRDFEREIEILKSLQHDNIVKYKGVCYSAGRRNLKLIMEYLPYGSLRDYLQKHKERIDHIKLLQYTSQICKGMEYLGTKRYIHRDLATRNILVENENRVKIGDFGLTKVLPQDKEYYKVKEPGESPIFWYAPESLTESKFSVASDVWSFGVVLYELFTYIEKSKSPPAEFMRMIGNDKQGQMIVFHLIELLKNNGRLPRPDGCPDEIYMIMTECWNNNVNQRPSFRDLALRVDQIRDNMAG
IC50 (JAK2; [1]) [nM],IC50 (JAK1) [nM],IC50 (JAK2; [2]) [nM],Compound
19,–,–,"C[C@@H](C#N)NC(=O)c1ccc(-c2nc(Nc3cnn(C4CC4)c3)ncc2F)cc1F [Example 117, (S)—N-(1-cyanoethyl)-4-(2-((1-cyclopropyl-1H-pyrazol-4-yl)amino)-5-fluoropyrimidin-4-yl)-2-fluorobenzamide]"
26.2,–,–,"N#CCNC(=O)c1ccc(-c2nc(Nc3cnn(CC(F)F)c3)ncc2F)cc1F [Example 131, N-(cyanomethyl)-4-(2-((1-(2,2-difluoroethyl)-1H-pyrazol-4-yl)amino)-5-fluoropyrimidin-4-yl)-2-fluorobenzamide]"
8.6,–,–,"Cc1cnc(Nc2cnn(C)c2)nc1-c1ccc(C(=O)N2CC(C#N)C2)cc1 [Example 15, 1-(4-(5-Methyl-2-((1-methyl-1H-pyrazol-4-yl)amino)pyrimidin-4-yl)benzoyl)azetidine-3-carbonitrile]"
9.2,–,–,"N#CC1CN(C(=O)c2ccc(-c3nc(Nc4cnn(C5CC5)c4)ncc3Cl)cc2F)C1 [Example 136, 1-(4-(5-Chloro-2-((1-cyclopropyl-1H-pyrazol-4-yl)amino)pyrimidin-4-yl)-2-fluorobenzoyl)azetidine-3-carbonitrile]"
41,–,–,"COc1cc(-c2nc(Nc3cnn(C)c3)ncc2C)ccc1C(=O)NCC#N [Example 33, N-(cyanomethyl)-2-methoxy-4-(5-methyl-2-((1-methyl-1H-pyrazol-4-yl)amino)pyrimidin-4-yl)benzamide]"
55.9,–,–,"Cc1cnc(Nc2cnn(C)c2)nc1-c1ccc(C(=O)NCCN(C)C)cc1 [Example 105, N-(2-(Dimethylamino)ethyl)-4-(5-methyl-2-((1-methyl-1H-pyrazol-4-yl)amino)pyrimidin-4-yl)benzamide]"
17.2,–,–,"Cc1cnc(Nc2cnn(C)c2)nc1-c1ccc(C(=O)NC2CC(O)C2)cc1 (stereo not drawn) [Example 9, N-(3-Hydroxycyclobutyl)-4-(5-methyl-2-((1-methyl-1H-pyrazol-4-yl)amino)pyrimidin-4-yl)benzamide]"
5.49,–,–,"Cc1cnc(Nc2cnn(C3CC3)c2)nc1-c1ccc(C(=O)N2CC(C#N)C2)cc1 [Example 29, 1-(4-(2-((1-Cyclopropyl-1H-pyrazol-4-yl)amino)-5-methylpyrimidin-4-yl)benzoyl)azetidine-3-carbonitrile]"
1.5,–,–,"Cc1cnc(Nc2cnn(C3CC3)c2)nc1-c1ccc(C(=O)NCC#N)c(F)c1 [Example 128, N-(cyanomethyl)-4-(2-((1-cyclopropyl-1H-pyrazol-4-yl)amino)-5-methylpyrimidin-4-yl)-2-fluorobenzamide]"
16.6,–,–,"Cc1cnc(Nc2cnn(CC(F)(F)F)c2)nc1-c1ccc(C(=O)N2CC(C#N)C2)cc1 [Example 5, 1-(4-(5-Methyl-2-((1-(2,2,2-trifluoroethyl)-1H-pyrazol-4-yl)amino)pyrimidin-4-yl)benzoyl)azetidine-3-carbonitrile]"
2.9,–,–,"Cc1cnc(Nc2cnn(C3CCN(CC#N)CC3)c2)nc1-c1ccc(C(=O)N2CC(C#N)C2)cc1 [Example 23, 1-(4-(2-((1-(1-(Cyanomethyl)piperidin-4-yl)-1H-pyrazol-4-yl)amino)-5-methylpyrimidin-4-yl)benzoyl)azetidine-3-carbonitrile]"

# Further lines, the molecule ahead of its results:
Compound,IC50 (JAK2; [1]) [nM],IC50 (JAK1) [nM],IC50 (JAK2; [2]) [nM]
"Cc1cnc(Nc2cnn(C3CCN(C(=O)C4(C)COC4)CC3)c2)nc1-c1ccc(C(=O)NCC#N)cc1 [Example 118, N-(Cyanomethyl)-4-(5-methyl-2-((1-(1-(3-methyloxetane-3-carbonyl)piperidin-4-yl)-1H-pyrazol-4-yl)amino)pyrimidin-4-yl)benzamide]",< 0.25,–,–
"N#CCNC(=O)c1ccc(-c2nc(Nc3cnn(C4CC4)c3)ncc2Cl)cc1F [Example 135, 4-(5-Chloro-2-((1-cyclopropyl-1H-pyrazol-4-yl)amino)pyrimidin-4-yl)-N-(cyanomethyl)-2-fluorobenzamide]",2.8,–,–
"Cc1cnc(Nc2cnn(C3CCNCC3)c2)nc1-c1ccc(C(=O)NCC(N)=O)cc1 [Example 82, N-(2-amino-2-oxoethyl)-4-(5-methyl-2-((1-(piperidin-4-yl)-1H-pyrazol-4-yl)amino)pyrimidin-4-yl)benzamide hydrochloride]",7.53,300,202
"Cc1cnc(Nc2cnn(C3CCN(C)CC3)c2)nc1-c1ccc(C(=O)N2CC(C#N)C2)cc1 [Example 92, 1-(4-(5-Methyl-2-((1-(1-methylpiperidin-4-yl)-1H-pyrazol-4-yl)amino)pyrimidin-4-yl)benzoyl)azetidine-3-carbonitrile]",3.6,253,114
"Cc1cnc(Nc2cnn(C)c2)nc1-c1ccc(C(=O)NCC(O)CO)cc1 (stereo not drawn) [Example 14, N-(2,3-Dihydroxypropyl)-4-(5-methyl-2-((1-methyl-1H-pyrazol-4-yl)amino)pyrimidin-4-yl)benzamide]",14.3,–,–
"Cn1cc(Nc2nccc(-c3ccc(C(=O)NCC#N)cc3F)n2)cn1 [Example 35, N-(Cyanomethyl)-3-fluoro-4-(2-((1-methyl-1H-pyrazol-4-yl)amino)pyrimidin-4-yl)benzamide]",34.9,–,–
"Cc1cnc(Nc2cnn(CC#N)c2)nc1-c1ccc(C(=O)N2CC(C#N)C2)cc1 [Example 30, 1-(4-(2-((1-(Cyanomethyl)-1H-pyrazol-4-yl)amino)-5-methylpyrimidin-4-yl)benzoyl)azetidine-3-carbonitrile]",11.5,–,–
"N#CCNC(=O)c1ccc(-c2nc(Nc3cnn(CC(N)=O)c3)ncc2Cl)cc1 [Example 42, 4-(2-((1-(2-amino-2-oxoethyl)-1H-pyrazol-4-yl)amino)-5-chloropyrimidin-4-yl)-N-(cyanomethyl)benzamide]",–,90.8,–
"Cc1cnc(Nc2cnn(C)c2)nc1-c1ccc(C(=O)NCC#N)c(F)c1 [Example 100, N-(Cyanomethyl)-2-fluoro-4-(5-methyl-2-((1-methyl-1H-pyrazol-4-yl)amino)pyrimidin-4-yl)benzamide]",4.34,–,–
"N#CCNC(=O)c1ccc(-c2nc(Nc3cnn(C4CC4)c3)ncc2F)cc1F [Example 116, N-(Cyanomethyl)-4-(2-((1-cyclopropyl-1H-pyrazol-4-yl)amino)-5-fluoropyrimidin-4-yl)-2-fluorobenzamide]",10.6,–,–
"Cn1cc(Nc2ncc(F)c(-c3ccc(C(=O)NCC#N)c(F)c3)n2)cn1 [Example 36, N-(Cyanomethyl)-2-fluoro-4-(5-fluoro-2-((1-methyl-1H-pyrazol-4-yl)amino)pyrimidin-4-yl)benzamide]",22,–,–
"Cc1cnc(Nc2cnn(C)c2)nc1-c1ccc(C(=O)NC(C)C#N)cc1 (stereo not drawn) [Example 17, N-(1-Cyanoethyl)-4-(5-methyl-2-((1-methyl-1H-pyrazol-4-yl)amino)pyrimidin-4-yl)benzamide]",5.15,–,–
"Cc1cnc(Nc2cnn(C)c2)nc1-c1ccc(C(=O)N2CC(C#N)C2)c(F)c1 [Example 103, 1-(2-Fluoro-4-(5-methyl-2-((1-methyl-1H-pyrazol-4-yl)amino)pyrimidin-4-yl)benzoyl)azetidine-3-carbonitrile]",12,–,–
"N#CCNC(=O)c1ccc(-c2nc(Nc3cnn(C4CC4)c3)ncc2C(F)F)cc1F [Example 109, N-(cyanomethyl)-4-(2-((1-cyclopropyl-1H-pyrazol-4-yl)amino)-5-(difluoromethyl)pyrimidin-4-yl)-2-fluorobenzamide]",–,–,457
"CC(=O)N1CCC(n2cc(Nc3ncc(C)c(-c4ccc(C(=O)N5CC(C#N)C5)cc4)n3)cn2)CC1 [Example 102, 1-(4-(2-((1-(1-Acetylpiperidin-4-yl)-1H-pyrazol-4-yl)amino)-5-methylpyrimidin-4-yl)benzoyl)azetidine-3-carbonitrile]",2.6,–,–
"C[C@@H](C#N)NC(=O)c1ccc(-c2ccnc(Nc3cnn(C4CC4)c3)n2)cc1F [Example 142, (S)—N-(1-Cyanoethyl)-4-(2-((1-cyclopropyl-1H-pyrazol-4-yl)amino)pyrimidin-4-yl)-2-fluorobenzamide]",12.6,–,–
"N#CCNC(=O)c1ccc(-c2nc(Nc3cnn(CC(F)(F)F)c3)ncc2F)cc1F [Example 130, N-(cyanomethyl)-2-fluoro-4-(5-fluoro-2-((1-(2,2,2-trifluoroethyl)-1H-pyrazol-4-yl)amino)pyrimidin-4-yl)benzamide]",58.1,–,–
"Cc1cnc(Nc2cnn(C)c2)nc1-c1ccc(C(=O)NCCO)cc1 [Example 8, N-(2-Hydroxyethyl)-4-(5-methyl-2-((1-methyl-1H-pyrazol-4-yl)amino)pyrimidin-4-yl)benzamide]",14,–,–
"N#CC1CN(C(=O)c2ccc(-c3ccnc(Nc4cnn(C5CC5)c4)n3)cc2F)C1 [Example 141, 1-(4-(2-((1-Cyclopropyl-1H-pyrazol-4-yl)amino)pyrimidin-4-yl)-2-fluorobenzoyl)azetidine-3-carbonitrile]",40.4,–,–
"Cc1cnc(Nc2cnn(C)c2)nc1-c1ccc(C(=O)NCCCO)cc1 [Example 7, N-(3-Hydroxypropyl)-4-(5-methyl-2-((1-methyl-1H-pyrazol-4-yl)amino)pyrimidin-4-yl)benzamide]",10.1,–,–
"N#CC1CN(C(=O)c2ccc(-c3nc(Nc4cnn(C5CC5)c4)ncc3F)cc2F)C1 [Example 127, 1-(4-(2-((1-Cyclopropyl-1H-pyrazol-4-yl)amino)-5-fluoropyrimidin-4-yl)-2-fluorobenzoyl)azetidine-3-carbonitrile]",53.5,–,–

# Reference: patent US12595253B2, “Benzamides of pyrazolylamino-pyrimidinyl derivatives, and compositions and methods thereof” (LYNK PHARMACEUTICALS CO. LTD., priority 2019, dated 2026)
